Literature values as cited in PubChem BioAssay AID1259409 (Chemical Carcinogenesis Research Information System (CCRIS), 2018).

System: rodent chemically induced tumor inhibition, incidence and multiplicity
Assay: CCRIS tumor inhibitor studies
Details: Dose [Inhibitor]: 0, Promoter: NONE USED

## CCC1(c2ccccc2)C(=O)NC(=O)NC1=O
Carcinogen: DIETHYLNITROSAMINE, 55-18-5, 80 MG/KG 1/D FOR 3 D PRIOR TO EACH CARCINOGEN DOSE (STUDY DURATION: 6 MO), Route [Inhibitor]: INTRAPERITONEAL, Species: RAT, Strain/Sex: BD6/FEMALE, Target Tissue: Type of Lesion: ESOPHAGUS: TUMOR, Dose [Carcinogen]: 80 MG/KG BW 1/WK FOR 8 WK
  tumour outcome (control, treated, inhibition, significance): 18%, 0%, 100%, not significant
Carcinogen: DIETHYLNITROSAMINE, 55-18-5, 80 MG/KG 1/D FOR 3 D PRIOR TO EACH CARCINOGEN DOSE (STUDY DURATION: 6 MO), Route [Inhibitor]: INTRAPERITONEAL, Species: RAT, Strain/Sex: BD6/FEMALE, Target Tissue: Type of Lesion: LIVER: TUMOR, Dose [Carcinogen]: 80 MG/KG BW 1/WK FOR 8 WK
  tumour outcome (control, treated, inhibition, significance): 82%, 100%, -18%, not significant
Carcinogen: N-ETHYL-N-NITROSOUREA, 759-73-9, 0.05% IN DRINKING WATER BEGINNING 4 WK POST CARCINOGEN AND CONTINUING FOR STUDY DURATION (STUDY DURATION: 52 WK), Route [Inhibitor]: ORAL, Species: RAT, Strain/Sex: WF/FEMALE, Target Tissue: Type of Lesion: BRAIN: GLIOMA, Dose [Carcinogen]: 5 MG ONCE AT 24 HR OF AGE
  tumour outcome (control, treated, inhibition, significance): 7/13 (54%), 1/12 (8%), 85%, p<.05
Carcinogen: N-ETHYL-N-NITROSOUREA, 759-73-9, 0.05% IN DRINKING WATER BEGINNING 4 WK POST CARCINOGEN AND CONTINUING FOR STUDY DURATION (STUDY DURATION: 52 WK), Route [Inhibitor]: ORAL, Species: RAT, Strain/Sex: WF/MALE, Target Tissue: Type of Lesion: BRAIN: GLIOMA, Dose [Carcinogen]: 5 MG ONCE AT 24 HR OF AGE
  tumour outcome (control, treated, inhibition, significance): 3/13 (23%), 1/10 (10%), 56%, not significant
Carcinogen: N-ETHYL-N-NITROSOUREA, 759-73-9, 0.05% IN DRINKING WATER BEGINNING 4 WK POST CARCINOGEN AND CONTINUING FOR STUDY DURATION (STUDY DURATION: 52 WK), Route [Inhibitor]: ORAL, Species: RAT, Strain/Sex: WF/MALE, Target Tissue: Type of Lesion: MENINGES: TUMOR, Dose [Carcinogen]: 5 MG ONCE AT 24 HR OF AGE
  tumour outcome (control, treated, inhibition, significance): 1/13 (8%), 0/10 (0%), 100%, not calculated
Carcinogen: N-METHYL-N-NITROSOUREA, 684-93-5, 0.05% IN DIET BEGINNING POST CARCINOGEN TREATMENT AND CONTINUING FOR 23 WK (STUDY DURATION: 25 WK), Route [Inhibitor]: ORAL, Species: RAT, Strain/Sex: F344/MALE, Target Tissue: Type of Lesion: FORESTOMACH: PAPILLOMA, Dose [Carcinogen]: 50 MG/KG 4/2 WK
  tumour outcome (control, treated, inhibition, significance): 8/17 (47%), 12/18 (67%), -43%, not calculated
Carcinogen: N-METHYL-N-NITROSOUREA, 684-93-5, 0.05% IN DIET BEGINNING POST CARCINOGEN TREATMENT AND CONTINUING FOR 23 WK (STUDY DURATION: 25 WK), Route [Inhibitor]: ORAL, Species: RAT, Strain/Sex: F344/MALE, Target Tissue: Type of Lesion: FORESTOMACH: SQUAMOUS CELL CARCINOMA, Dose [Carcinogen]: 50 MG/KG 4/2 WK
  tumour outcome (control, treated, inhibition, significance): 2/17 (12%), 9/18 (50%), -316%, not calculated
Carcinogen: N-METHYL-N-NITROSOUREA, 684-93-5, 0.05% IN DIET BEGINNING POST CARCINOGEN TREATMENT AND CONTINUING FOR 23 WK (STUDY DURATION: 25 WK), Route [Inhibitor]: ORAL, Species: RAT, Strain/Sex: F344/MALE, Target Tissue: Type of Lesion: HEMATOPOIETIC SYSTEM: LYMPHOMA OR LEUKEMIA, Dose [Carcinogen]: 50 MG/KG 4/2 WK
  tumour outcome (control, treated, inhibition, significance): 3/17 (18%), 5/18 (28%), -56%, not calculated
Carcinogen: N-METHYL-N-NITROSOUREA, 684-93-5, 0.05% IN DIET BEGINNING POST CARCINOGEN TREATMENT AND CONTINUING FOR 23 WK (STUDY DURATION: 25 WK), Route [Inhibitor]: ORAL, Species: RAT, Strain/Sex: F344/MALE, Target Tissue: Type of Lesion: SMALL INTESTINE: ADENOCARCINOMA, Dose [Carcinogen]: 50 MG/KG 4/2 WK
  tumour outcome (control, treated, inhibition, significance): 9/17 (53%), 6/18 (33%), 38%, not calculated
Carcinogen: N-METHYL-N-NITROSOUREA, 684-93-5, 0.05% IN DIET BEGINNING POST CARCINOGEN TREATMENT AND CONTINUING FOR 23 WK (STUDY DURATION: 25 WK), Route [Inhibitor]: ORAL, Species: RAT, Strain/Sex: F344/MALE, Target Tissue: Type of Lesion: SMALL INTESTINE: ADENOMA, Dose [Carcinogen]: 50 MG/KG 4/2 WK
  tumour outcome (control, treated, inhibition, significance): 10/17 (59%), 15/18 (83%), -41%, not calculated
Carcinogen: N-METHYL-N-NITROSOUREA, 684-93-5, 0.05% IN DIET BEGINNING POST CARCINOGEN TREATMENT AND CONTINUING FOR 23 WK (STUDY DURATION: 25 WK), Route [Inhibitor]: ORAL, Species: RAT, Strain/Sex: F344/MALE, Target Tissue: Type of Lesion: THYROID: ADENOCARCINOMA, Dose [Carcinogen]: 50 MG/KG 4/2 WK
  tumour outcome (control, treated, inhibition, significance): 1/17 (6%), 6/18 (33%), -450%, not calculated
Carcinogen: N-METHYL-N-NITROSOUREA, 684-93-5, 0.05% IN DIET BEGINNING POST CARCINOGEN TREATMENT AND CONTINUING FOR 23 WK (STUDY DURATION: 25 WK), Route [Inhibitor]: ORAL, Species: RAT, Strain/Sex: F344/MALE, Target Tissue: Type of Lesion: THYROID: ADENOMA, Dose [Carcinogen]: 50 MG/KG 4/2 WK
  tumour outcome (control, treated, inhibition, significance): 3/17 (18%), 16/18 (89%), -394%, not calculated
Carcinogen: N-METHYL-N-NITROSOUREA, 684-93-5, 0.05% IN DIET BEGINNING POST CARCINOGEN TREATMENT AND CONTINUING FOR 23 WK (STUDY DURATION: 25 WK), Route [Inhibitor]: ORAL, Species: RAT, Strain/Sex: F344/MALE, Target Tissue: Type of Lesion: TONGUE: PAPILLOMA, Dose [Carcinogen]: 50 MG/KG 4/2 WK
  tumour outcome (control, treated, inhibition, significance): 2/17 (12%), 2/18 (11%), 8%, not calculated
Carcinogen: N-METHYL-N-NITROSOUREA, 684-93-5, 0.05% IN DIET BEGINNING POST CARCINOGEN TREATMENT AND CONTINUING FOR 23 WK (STUDY DURATION: 25 WK), Route [Inhibitor]: ORAL, Species: RAT, Strain/Sex: F344/MALE, Target Tissue: Type of Lesion: TONGUE: SQUAMOUS CELL CARCINOMA, Dose [Carcinogen]: 50 MG/KG 4/2 WK
  tumour outcome (control, treated, inhibition, significance): 2/17 (12%), 3/18 (17%), -42%, not calculated
Carcinogen: N-METHYL-N-NITROSOUREA, 684-93-5, 0.05% IN DIET BEGINNING POST CARCINOGEN TREATMENT AND CONTINUING FOR 23 WK (STUDY DURATION: 25 WK), Route [Inhibitor]: ORAL, Species: RAT, Strain/Sex: F344/MALE, Target Tissue: Type of Lesion: URINARY BLADDER: PAPILLOMA, Dose [Carcinogen]: 50 MG/KG 4/2 WK
  tumour outcome (control, treated, inhibition, significance): 2/17 (12%), 1/18 (6%), 50%, not calculated
0.05% IN DIET FOR 13 WK AFTER WEANING (STUDY DURATION: 13 WK), Route [Inhibitor]: ORAL, Species: MOUSE, Strain/Sex: DDK/FEMALE, Target Tissue: Type of Lesion: LIVER: TUMOR, Dose [Carcinogen]: 40 MG/KG ADMINISTERED TO MOTHERS ON DAY 14 OF GESTATION
  tumour outcome (control, treated, inhibition, significance): 2/15 (13%), 1/15 (7%), 46%, p<0.05
0.05% IN DIET FOR 13 WK AFTER WEANING (STUDY DURATION: 13 WK), Route [Inhibitor]: ORAL, Species: MOUSE, Strain/Sex: DDK/MALE, Target Tissue: Type of Lesion: LIVER: TUMOR, Dose [Carcinogen]: 40 MG/KG ADMINISTERED INTRAPERITONEALLY TO MOTHERS ON DAY 14 OF GESTATION
  tumour outcome (control, treated, inhibition, significance): 2/15 (13%), 1/7 (6%), 54%, p<0.05
0.05% IN DIET FOR 25 WK AFTER WEANING (STUDY DURATION: 25 WK), Route [Inhibitor]: ORAL, Species: MOUSE, Strain/Sex: DDK/MALE, Target Tissue: Type of Lesion: LIVER: TUMOR, Dose [Carcinogen]: 40 MG/KG ADMINISTERED TO MOTHERS ON DAY 14 OF GESTATION
  tumour outcome (control, treated, inhibition, significance): 8/15 (53%), 0/18 (0%), 100%, not calculated
